Measured values taken from publication PMC11481179, “Development and Application of Reversible and Irreversible Covalent Probes for Human and Mouse Cathepsin‐K Activity Detection, Revealing Nuclear Activity” (Advanced Science, 2024).

Experiments:
[1] = system: U-2 OS cells; experiment: Cell viability assay (methylene blue); type: cell-based, human; conditions: 48 h incubation
Protocol: U-2 OS, U-87 MG, and enriched monocyte cells were grown at 370 C with 5% of CO2 in the
respective medium as described previously. Cells were seeded (1500 cells/well in 96 wells
plate) one day before the incubation with indicated probe or inhibitor at various concentrations.
After 48 h cells were fixed, and viability was measured by quantitative colorimetric assay using
methylene blue according to the procedure reported by Ben-Bassat et al. The data were
expressed as a percentage of control; data represent the mean of 2 experiments with triplicates
for each treatment (± standard deviation).
Fluorescent imaging of CTSK activity in lung tissue: Freshly resected human lung cancer and
normal lung tissues or mouse normal lung and primary lung cancer were embedded in OCT,
frozen in liquid nitrogen, and kept at - 80° C. Tissues were sectioned into 10 μm thick slices
using a cryostat (Leica). The slides were defrosted and washed with 1X PBS. Then the slides
were pretreated with DMSO or GD30 (5 µM) in buffer acetate for 1 h at 37° C. Afterward,
GD32 (0.75uM) or DMSO in buffer acetate were applied to the slides for 4 h at 37° C. Three
short washes with 1X PBS were done and the slides were left in 1X PBS for overnight
incubation at 4° C. The next day, slides were mounted with DAPI-Fluoromount-G® before
visualization by confocal microscopy. Olympus FV10i was used for human samples, whereas
Zeiss was used for mouse samples.
Details of the synthesis of the compounds
Synthesis of Compound (2)

[2] = target: T1, CTSS (Homo sapiens, UniProt P25774); experiment: In vitro kinetic evaluation of cathepsin inhibition, fluorescent substrate Z-FR-AMC; type: biochemical; conditions: for mode of inhibition: CTSS; for times less potent toward CTSS compared to CTSK: selectivity CTSK over CTSS
T1 sequence (P25774 115-331): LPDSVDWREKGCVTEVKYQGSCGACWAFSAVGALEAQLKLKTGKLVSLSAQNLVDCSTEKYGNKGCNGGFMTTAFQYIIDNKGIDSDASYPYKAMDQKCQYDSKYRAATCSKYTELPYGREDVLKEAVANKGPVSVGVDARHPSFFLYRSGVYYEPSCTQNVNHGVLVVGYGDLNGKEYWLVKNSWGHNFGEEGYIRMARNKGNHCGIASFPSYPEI
Protocol: (§1) used for TLC. Phosphate Buffer Saline (PBS) was purchased from Biological Industries (pH = […]
(§2) 7.4) and was used as a buffer system in all experiments if not indicated otherwise. […]
Recombinant human CTSB, CTSK, CTSL, and CTSS were supplied by B. Turk (J.
Stefan Institute).[1] […]
(§3) In vitro kinetic evaluation of labeling recombinant cathepsins:
(§4) Reactions were monitored for 30 min at 37° C in 96-well black flat-bottom microplates […]
(§5) (Greiner, Germany) using Tecan INFINITE M1000 pro plate reader (Tecan, Switzerland), […]
(§6) substrates Z-RR-AMC (CTSL) or Z-FR-AMC (CTSS, CTSB and CTSK), and excitation and […]
(§7) emission wavelengths of 370 and 460 nm, respectively. Cathepsin concentrations in the assay were 0.4 nM (CTSK) or 5 nM (CTSS, CTSB, and CTSL). The buffer was 100 mM Na2HPO4/NaH2PO4, 50 mM NaCl, 5 mM DTT, 0,1% Peg-6000, pH 6. For irreversible inhibitors, reaction data were fitted to the one-phase association formula in GraphPad Prism 9 software: Y=Y0 + (Plateau-Y0)*(1-exp(-K*X)) where in this case Y0 and Y represent fluorescence signal at times 0 and t, respectively, K represent the observed reaction rate kobs and X the inhibitor concentration. Inactivation rates at each inhibitor concentration were obtained by subtracting the inactivation observed in the control sample: kobs – kctrl. The maximal rate of inactivation (kinact) was obtained as the asymptote from equation Y = kinact*X/(Kiapp + X) where X is inhibitor concentration, Y is the observed inactivation rate for each X, and Kiapp is the apparent inhibition constant. Ki values were calculated from IC50 or from Kiapp using formulas Ki = Kiapp / (1 + Km/S) and IC50 = E0/2 + Kiapp, where Km stands for Michalis-Menten constant, S for substrate concentration and E0 for cathepsin concentration.
(§8) The highest inhibitor concentrations in the assay were 50 µM. Measurements were performed in several independent duplicates. Average values are presented with standard deviations. […]

[3] = target: CTSB (Homo sapiens, UniProt P07858); experiment: as above; type: biochemical; conditions: for mode of inhibition: CTSB; for Ki: CTSB 5 nM, pH 6, 37 °C
Protocol: as §1, §2
Recombinant human CTSB, CTSK, CTSL, and CTSS were supplied by B. Turk (J. […]
as §3, §4, §5, §6, §7, §8
µM) were pretreated with different concentrations of probes (GD32, GD36, GD37, or GD42)

[4] = target: T1, CTSS; experiment: Recombinant cathepsin labeling by ABPs, in-gel fluorescence; type: binding; conditions: increasing probe concentrations, 1 h
Protocol: The ABPs were tested for binding to recombinant CTSK compared to the closely related CTSB, CTSL, and CTSS, which are highly abundant and active in most biological samples. Using the in‐gel fluorescent analysis that detects the stable enzyme‐probe complex, active CTSK was labeled with each of the four probes, and significant selectivity was found in three probes GD32, GD37, and GD42 (Figure 1a). […] However, the minimum amount of active CTSK the remaining probes detected was much higher, ranging from 8 to 70 ngs, (Figure 1b).
Figure 1 In vitro evaluation of CTSK targeted compounds. a) Labeling of recombinant cathepsins by ABPs. Recombinant cathepsins were treated with increasing concentrations of ABPs for 1 h. Samples were separated by SDS‐PAGE and scanned for fluorescence by a Typhoon scanner at 635/670 nm. All probes show dose‐dependent binding to the CTSK, and have lower affinity to CTSS except GD36, b) CTSK [0.5–280 ng] was labeled with the indicated ABPs [5 µM]. Incubations were performed for 1 h at 37 °C, at pH 5.5. Samples were analyzed as described in (a). c) Recombinant cathepsins B, K, L, and S [0.5 µM] were first treated with the indicated concentrations of the inhibitor GD30 or vehicle for 1 h followed by incubation with a pan cathepsin probe GB123 [1 µM] for 1 h. Samples were analyzed as described in (a). d) Quantitative analysis of CTSK inhibition by GD30 presented in (d), data represent mean values ± standard error, n = 3. e) IC50 plot of GD30 inhibition of CTSK activity. […]
emission wavelengths of 370 and 460 nm, respectively. Cathepsin concentrations in the assay were 0.4 nM (CTSK) or 5 nM (CTSS, CTSB, and CTSL). […] For irreversible inhibitors, reaction data were fitted to the one-phase association formula in GraphPad Prism 9 software: Y=Y0 + (Plateau-Y0)*(1-exp(-K*X)) where in this case Y0 and Y represent fluorescence signal at times 0 and t, respectively, K represent the observed reaction rate kobs and X the inhibitor concentration. […]
reaction was stopped and samples were analyzed as described above. […]

SMILES	cytotoxicity [1]	mode of inhibition [2]	Ki ([2]; CTSS 5 nM, pH 6, 37 °C) [µM]	kinact ([2]; CTSS 5 nM, pH 6, 37 °C) [s⁻¹]	kinact/Ki ([2]; CTSS 5 nM, pH 6, 37 °C) [M⁻¹ s⁻¹]	times less potent toward CTSS compared to CTSK [2] [times]	mode of inhibition [3]	Ki [3] [µM]	labeling of CTSS relative to CTSK [4]
C#CCNC(=O)[C@H](CC(C)C)N[C@@H](c1ccc(-c2ccc(S(=O)(=O)CCNC(=O)OC(C)(C)C)cc2)cc1)C(F)(F)F [GD30]	No toxicity	–	–	–	–	–	–	–	–
C#CCNC(=O)[C@H](CC(C)C)N[C@@H](c1ccc(-c2ccc(S(=O)(=O)CCNC(=O)CCCCC[N+]3=C(/C=C/C=C/C=C4/N(C)c5ccc(S(=O)(=O)O)cc5C4(C)C)C(C)(C)c4cc(S(=O)(=O)O)ccc43)cc2)cc1)C(F)(F)F [GD32]	No toxicity	Irreversible	0.98	0.0022 ± 0.00009	2220 ± 300	115	Reversible	9.4	only labeled CTSS at higher concentrations
CC(C)C[C@H](N[C@@H](c1ccc(-c2ccc(S(=O)(=O)CCNC(=O)CCCCC[N+]3=C(/C=C/C=C/C=C4/N(C)c5ccc(S(=O)(=O)O)cc5C4(C)C)C(C)(C)c4cc(S(=O)(=O)O)ccc43)cc2)cc1)C(F)(F)F)C(=O)NC1(C#N)CC1 [GD37]	–	Reversible	0.06	–	–	150	Reversible	5.9	only labeled CTSS at higher concentrations
